“Also recorded” adds a separate entry of the source.
Test system: not given
Assay: not given
Conditions: not given

Row | melting point | SMILES
1 | 212.9 to 214.3 °C | CCOC(=O)c1cnc2ccc(Br)cc2c1Nc1cccc(S(=O)(=O)NC)c1 [5d, Ethyl 6-Bromo-4-((3-(N-methylsulfamoyl)phenyl)amino)quinoline-3-carboxylate]
2 | 235.6 to 237.2 °C | CCOC(=O)c1cnc2ccc(Br)cc2c1Nc1cccc(S(N)(=O)=O)c1 [5a, Ethyl 6-Bromo-4-(3-sulfamoyl-phenylamino)-quinoline-3-carboxylate]

Test system: CDK8
Assay: not given
Conditions: ATP-competitive, ref Cee et al., 2009, Crown, 2017, Pelish et al., 2015, Rzymski et al., read-out: CDK8 inhibitory activity IC50; cited from earlier work

Row | SMILES | IC50
3 | CN(C)[C@H]1C[C@@]23CC[C@@]4(O2)C(=CC[C@]2(C)[C@@H](c5ccc6ccncc6c5)CC[C@H]24)C=C3[C@@H](O)[C@@H]1O [cortistatin A] | 0.015 µM

Same assay, conditions: ref McDermott et al., 2017; Rzymski et al., 2015; read-out: CDK8 modulation IC50; cited from earlier work

Row | SMILES | IC50
4 | CN1CCN(C(=O)c2ccc3cc(CCNc4ncnc5ccc(C#N)cc45)ccc3c2)CC1 [Senexin B] | 0.024 µM

Test system: acute myeloid leukemia (AML)
Assay: not given
Design: method as in earlier work
Conditions: ref Cee et al., 2009, Crown, 2017, Pelish et al., 2015, Rzymski et al.; cited from earlier work

Row | SMILES | anticancer activity in animal models of AML
5 | CN(C)[C@H]1C[C@@]23CC[C@@]4(O2)C(=CC[C@]2(C)[C@@H](c5ccc6ccncc6c5)CC[C@H]24)C=C3[C@@H](O)[C@@H]1O [cortistatin A] | exhibited anticancer activity

Biological target: T1, CDK8/CycC (Homo sapiens, UniProt P49336)
T1 construct: purchased Reaction Biology Corp. (Kinase HotSpot service)
Assay: In vitro kinase inhibition assay (Reaction Biology HotSpot, 10 dose IC50 singlet)
Format: biochemical
Conditions: CDK8/CycC IC50 of 5a compared with 5d
Method: Reaction Biology Corp. Kinase HotSpotSM service (http://www.reactionbiology.com) was used for the screening of tested compounds. […] Activity of kinases were assessed by the HotSpot assay platform, which contained specific kinase/substrate pairs along with required cofactors ([Abdelazem et al., 2015]; [Abdelazem et al., 2016]; [Al-Sanea et al., 2016a]; [Al-Sanea et al., 2015a]; [Al-Sanea et al., 2015b]; [Al-Sanea, El-Deeb & Lee, 2013]; [Park et al., 2014]).
The newly prepared phenylaminoquinolines 5a–i were biologically evaluated as potential CDK8/CycC complex inhibitors.

T1 sequence (P49336 whole entry): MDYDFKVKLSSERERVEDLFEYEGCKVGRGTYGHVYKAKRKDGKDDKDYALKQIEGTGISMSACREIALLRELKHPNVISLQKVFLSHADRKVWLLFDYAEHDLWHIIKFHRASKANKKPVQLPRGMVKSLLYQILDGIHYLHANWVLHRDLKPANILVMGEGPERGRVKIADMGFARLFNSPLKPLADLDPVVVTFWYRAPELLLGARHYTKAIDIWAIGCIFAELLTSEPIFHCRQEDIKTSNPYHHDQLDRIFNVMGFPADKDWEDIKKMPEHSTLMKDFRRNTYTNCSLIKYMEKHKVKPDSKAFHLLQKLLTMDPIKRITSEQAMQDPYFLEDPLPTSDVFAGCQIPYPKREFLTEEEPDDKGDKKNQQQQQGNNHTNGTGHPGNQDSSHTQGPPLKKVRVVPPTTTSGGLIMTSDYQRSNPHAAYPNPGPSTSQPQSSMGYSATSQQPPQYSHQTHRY
T1 sequence (P24863 whole entry partner): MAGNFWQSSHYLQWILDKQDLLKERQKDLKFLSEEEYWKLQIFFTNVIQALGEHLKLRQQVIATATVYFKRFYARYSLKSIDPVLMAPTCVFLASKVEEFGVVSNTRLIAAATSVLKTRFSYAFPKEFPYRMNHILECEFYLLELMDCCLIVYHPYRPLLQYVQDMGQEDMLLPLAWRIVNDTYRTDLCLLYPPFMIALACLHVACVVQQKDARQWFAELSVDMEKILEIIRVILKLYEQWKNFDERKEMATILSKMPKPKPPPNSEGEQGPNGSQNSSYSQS

Row | fold decrease in potency relative to 5d | SMILES
6 | 6 fold | CCOC(=O)c1cnc2ccc(Br)cc2c1Nc1cccc(S(N)(=O)=O)c1 [5a, Ethyl 6-Bromo-4-(3-sulfamoyl-phenylamino)-quinoline-3-carboxylate]

Same assay, conditions: CDK8/CycC; 10 dose IC50 singlet assay

Row | IC50 | SMILES
7 | No inhibition | CCOC(=O)c1cnc2ccc(OC)cc2c1Nc1cccc(S(C)(=O)=O)c1 [5h, Ethyl 6-methoxy-4-((3-(methylsulfonyl)phenyl)amino)quinoline-3-carboxylate]
8 | single digit micromolar potency | CCOC(=O)c1cnc2ccc(OC)cc2c1Nc1cccc(S(N)(=O)=O)c1 [5b, Ethyl 6-methoxy-4-((3-sulfamoylphenyl)amino)quinoline-3-carboxylate]
9 | failed to inhibit | CCOC(=O)c1cnc2cc(Cl)c(F)cc2c1Nc1cccc(S(N)(=O)=O)c1 [5c, Ethyl 7-chloro-6-fluoro-4-((3-sulfamoylphenyl)amino)quinoline-3-carboxylate]
10 | single digit micromolar potency | CCOC(=O)c1cnc2ccc(Br)cc2c1Nc1cccc(S(N)(=O)=O)c1 [5a, Ethyl 6-Bromo-4-(3-sulfamoyl-phenylamino)-quinoline-3-carboxylate]

Row | SMILES | IC50
11 | CCOC(=O)c1cnc2cc(Cl)c(F)cc2c1Nc1cccc(S(C)(=O)=O)c1 [5i, Ethyl 7-chloro-6-fluoro-4-((3-(methylsulfonyl)phenyl)amino)quinoline-3-carboxylate] | failed to inhibit; also recorded: No inhibition
12 | CCOC(=O)c1cnc2cc(Cl)c(F)cc2c1Nc1cccc(NS(C)(=O)=O)c1 [5f, Ethyl 7-chloro-6-fluoro-4-((3-(methylsulfonamido)phenyl)amino)quinoline-3-carboxylate] | failed to inhibit; also recorded: No inhibition
13 | CCOC(=O)c1cnc2ccc(Br)cc2c1Nc1cccc(S(C)(=O)=O)c1 [5g, Ethyl 6-Bromo-4-(3-methanesulfonylphenylamino)-quinoline-3-carboxylate] | no CDK8/CycC complex inhibitory activity; also recorded: No inhibition

Same assay, conditions: CDK8/CycC; 10 dose IC50 singlet assay; read-out: IC50

Row | IC50 | SMILES
14 | 0.639 µM | CCOC(=O)c1cnc2ccc(Br)cc2c1Nc1cccc(S(=O)(=O)NC)c1 [5d, Ethyl 6-Bromo-4-((3-(N-methylsulfamoyl)phenyl)amino)quinoline-3-carboxylate]
15 | 5.34 µM | CCOC(=O)c1cnc2ccc(OC)cc2c1Nc1cccc(S(N)(=O)=O)c1 [5b, Ethyl 6-methoxy-4-((3-sulfamoylphenyl)amino)quinoline-3-carboxylate]
16 | 3.98 µM | CCOC(=O)c1cnc2ccc(Br)cc2c1Nc1cccc(S(N)(=O)=O)c1 [5a, Ethyl 6-Bromo-4-(3-sulfamoyl-phenylamino)-quinoline-3-carboxylate]
17 | 1.42 µM | CCOC(=O)c1cnc2ccc(OC)cc2c1Nc1cccc(NS(C)(=O)=O)c1 [5e, Ethyl 6-methoxy-4-((3-(methylsulfonamido)phenyl)amino)quinoline-3-carboxylate]

Same assay, conditions: CDK8/CycC; compound at 20 µM; read-out: % enzyme inhibition ± SD (20 µM)

Row | inhibition at 20 µM | SMILES
18 | 32 ± 0.82% | CCOC(=O)c1cnc2cc(Cl)c(F)cc2c1Nc1cccc(S(C)(=O)=O)c1 [5i, Ethyl 7-chloro-6-fluoro-4-((3-(methylsulfonyl)phenyl)amino)quinoline-3-carboxylate]
19 | 27.2 ± 8.46% | CCOC(=O)c1cnc2cc(Cl)c(F)cc2c1Nc1cccc(NS(C)(=O)=O)c1 [5f, Ethyl 7-chloro-6-fluoro-4-((3-(methylsulfonamido)phenyl)amino)quinoline-3-carboxylate]
20 | 37.9 ± 1.31% | CCOC(=O)c1cnc2cc(Cl)c(F)cc2c1Nc1cccc(S(N)(=O)=O)c1 [5c, Ethyl 7-chloro-6-fluoro-4-((3-sulfamoylphenyl)amino)quinoline-3-carboxylate]
21 | 22.4 ± 1.02% | CCOC(=O)c1cnc2ccc(Br)cc2c1Nc1cccc(S(C)(=O)=O)c1 [5g, Ethyl 6-Bromo-4-(3-methanesulfonylphenylamino)-quinoline-3-carboxylate]
22 | 85.9 ± 0.94% | CCOC(=O)c1cnc2ccc(OC)cc2c1Nc1cccc(NS(C)(=O)=O)c1 [5e, Ethyl 6-methoxy-4-((3-(methylsulfonamido)phenyl)amino)quinoline-3-carboxylate]

Further lines, the molecule ahead of its results:

Row | SMILES | inhibition at 20 µM
23 | CCOC(=O)c1cnc2ccc(Br)cc2c1Nc1cccc(S(=O)(=O)NC)c1 [5d, Ethyl 6-Bromo-4-((3-(N-methylsulfamoyl)phenyl)amino)quinoline-3-carboxylate] | 88.6 ± 0.97%
24 | CCOC(=O)c1cnc2ccc(OC)cc2c1Nc1cccc(S(C)(=O)=O)c1 [5h, Ethyl 6-methoxy-4-((3-(methylsulfonyl)phenyl)amino)quinoline-3-carboxylate] | 18.7 ± 0.48%
25 | CCOC(=O)c1cnc2ccc(OC)cc2c1Nc1cccc(S(N)(=O)=O)c1 [5b, Ethyl 6-methoxy-4-((3-sulfamoylphenyl)amino)quinoline-3-carboxylate] | 63.4 ± 2.31%
26 | CCOC(=O)c1cnc2ccc(Br)cc2c1Nc1cccc(S(N)(=O)=O)c1 [5a, Ethyl 6-Bromo-4-(3-sulfamoyl-phenylamino)-quinoline-3-carboxylate] | 83.9 ± 1.83%

From publication PMC7075364, “Synthesis and biological evaluation of small molecule modulators of CDK8/Cyclin C complex with phenylaminoquinoline scaffold” (PeerJ, 2020)
